Measurements: ChEMBL document CHEMBL1138163, “Potent 2-[(pyrimidin-4-yl)amine}-1,3-thiazole-5-carbonitrile-based inhibitors of VEGFR-2 (KDR) kinase” (Bioorg Med Chem Lett, 2006)

Key:
[1] = target: Voltage-gated inwardly rectifying potassium channel KCNH2 (Homo sapiens, UniProt Q12809); test: Displacement of [3H]dofetilide from human ERG
Canis familiaris = test: AUC in Beagle dog at 0.25 mg/kg, iv; assay type: ADME, organism-based, Canis lupus familiaris, Plasma; parameters: dose 0.25 mg/kg, route intravenous; details: in vivo
[2] = Volume of distribution in Beagle dog at 0.25 mg/kg, iv; assay type: ADME, organism-based, Canis lupus familiaris; parameters: dose 0.25 mg/kg, route intravenous; details: in vivo, read-out: Vdss
[3] = Half life in Beagle dog at 0.25 mg/kg, iv; assay type: ADME, organism-based, Canis lupus familiaris; parameters: dose 0.25 mg/kg, route intravenous; details: in vivo
[4] = Clearance in dog at 1 mg/kg, iv and 1 mg/kg, po; assay type: ADME, organism-based, Canis lupus familiaris; details: in vivo
[5] = Volume of distribution in dog at 1 mg/kg, iv and 1 mg/kg, po; assay type: ADME, organism-based, Canis lupus familiaris; details: in vivo, read-out: Vdss
[6] = Oral bioavailability in dog at 1 mg/kg, po; assay type: ADME, organism-based, Canis lupus familiaris; details: in vivo
[7] = Clearance in rat at 2 mg/kg, iv and 10 mg/kg, po; assay type: ADME, organism-based; details: in vivo
[8] = Volume of distribution in rat at 2 mg/kg, iv and 10 mg/kg, po; assay type: ADME, organism-based; details: in vivo, read-out: Vdss
[9] = Oral bioavailability in rat at 10 mg/kg, po; assay type: ADME, organism-based; details: in vivo
[10] = Clearance in rhesus monkey at 1 mg/kg, iv and 1 mg/kg, po; assay type: ADME, organism-based, Macaca mulatta; details: in vivo
[11] = Volume of distribution in rhesus monkey at 1 mg/kg, iv and 1 mg/kg, po; assay type: ADME, organism-based, Macaca mulatta; details: in vivo, read-out: Vdss
[12] = Oral bioavailability in rhesus monkey at 1 mg/kg, po; assay type: ADME, organism-based, Macaca mulatta; details: in vivo

Chain of Voltage-gated inwardly rectifying potassium channel KCNH2 (Q12809 whole entry): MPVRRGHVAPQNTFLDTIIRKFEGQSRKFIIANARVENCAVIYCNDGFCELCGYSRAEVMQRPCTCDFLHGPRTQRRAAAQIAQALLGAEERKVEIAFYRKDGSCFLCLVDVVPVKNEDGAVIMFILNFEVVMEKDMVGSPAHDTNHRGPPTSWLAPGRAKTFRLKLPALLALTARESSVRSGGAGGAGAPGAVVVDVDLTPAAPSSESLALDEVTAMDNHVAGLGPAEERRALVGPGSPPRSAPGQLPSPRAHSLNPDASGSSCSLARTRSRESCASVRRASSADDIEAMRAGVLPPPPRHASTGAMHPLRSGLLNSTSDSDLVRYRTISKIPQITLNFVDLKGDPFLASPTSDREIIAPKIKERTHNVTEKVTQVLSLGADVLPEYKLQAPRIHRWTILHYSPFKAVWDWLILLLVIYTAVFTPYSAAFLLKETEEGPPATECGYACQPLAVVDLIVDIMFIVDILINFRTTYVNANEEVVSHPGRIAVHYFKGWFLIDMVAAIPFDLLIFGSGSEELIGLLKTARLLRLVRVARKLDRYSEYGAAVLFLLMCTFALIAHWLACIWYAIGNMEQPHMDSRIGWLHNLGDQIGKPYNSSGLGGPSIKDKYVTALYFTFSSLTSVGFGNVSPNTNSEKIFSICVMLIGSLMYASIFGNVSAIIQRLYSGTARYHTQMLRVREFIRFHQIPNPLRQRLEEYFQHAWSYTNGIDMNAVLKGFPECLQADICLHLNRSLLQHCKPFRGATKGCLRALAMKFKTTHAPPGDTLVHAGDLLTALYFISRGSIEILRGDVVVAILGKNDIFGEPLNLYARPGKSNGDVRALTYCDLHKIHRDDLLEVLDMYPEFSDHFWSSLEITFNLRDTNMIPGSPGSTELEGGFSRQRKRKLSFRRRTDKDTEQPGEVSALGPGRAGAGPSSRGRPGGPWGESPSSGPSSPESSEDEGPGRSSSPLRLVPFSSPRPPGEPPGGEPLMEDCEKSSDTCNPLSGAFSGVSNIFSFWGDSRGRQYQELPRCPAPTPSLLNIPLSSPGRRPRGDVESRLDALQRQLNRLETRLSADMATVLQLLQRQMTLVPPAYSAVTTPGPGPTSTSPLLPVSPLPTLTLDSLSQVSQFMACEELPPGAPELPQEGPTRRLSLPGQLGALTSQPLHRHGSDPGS

Row | AUC (Canis familiaris) [µM·h] | Vd [2] [L/kg] | half-life [3] [h] | SMILES | Activity [1] [µM] | also measured
1 |  |  |  | N#Cc1cnc(Nc2cc(N3CCCC(N)CC3)ncn2)s1 (stereo not given) | 1.012 | 
2 | 3.08 | 14.8 | 7.97 | N#Cc1cnc(Nc2cc(N3CCN(CCCN4CCOCC4)CC3)ncn2)s1 | 4.003 | 
3 |  |  |  | CC(=O)N1CCN(c2cc(Nc3ncc(C#N)s3)ncn2)CC1 | 3.291 | 
4 |  |  |  | N#Cc1cnc(Nc2ccnc(N)n2)s1 | > 10 | 
5 |  |  |  | N#Cc1cnc(Nc2ccncn2)s1 | 2.932 | 
6 | 10.2 | 2.4 | 10.5 | N#Cc1cnc(Nc2cc(N3CCN(CCN4CCOCC4)CC3)ncn2)s1 | 5 | clearance [4]: 4.11 mL/min/kg; Vd [5]: 2.72 L/kg; bioavailability [6]: 51%; clearance [7]: 38.7 mL/min/kg; Vd [8]: 3.32 L/kg; bioavailability [9]: > 99%; clearance [10]: 22.7 mL/min/kg; Vd [11]: 10.1 L/kg; bioavailability [12]: 54%
7 |  |  |  | N#Cc1cnc(Nc2cc(N3CCCNCC3)ncn2)s1 | 2.951 | 
8 | 4.81 | 1.31 | 2 | COCCN1CCN(c2cc(Nc3ncc(C#N)s3)ncn2)CC1 |  | 
9 | 1.91 | 3.65 | 1.34 | N#Cc1cnc(Nc2cc(N3CCC(N)CC3)ncn2)s1 | 6.643 | 
10 |  |  |  | N#Cc1cnc(Nc2cc(N)ncn2)s1 | > 10 | 
11 |  |  |  | CN1CCN(c2cc(Nc3ncc(C#N)s3)ncn2)CC1 | 0.923 | 
12 | 6.07 | 14.1 | 23 | N#Cc1cnc(Nc2cc(N3CCN(CCN4CCCC4)CC3)ncn2)s1 | 0.383 | 
